In PubChem BioAssay (NCI):
“And” between values parts separate entries of the source, which are not always exact repeats. Equal values may be shown once.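 Following 48 hours of exposure in 96-well plates, responses at five concentrations were used to interpolate endpoints linearly. GI50 is the concentration that inhibits growth by half. TGI: concentration producing complete growth inhibition.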

Experiments:
Experiment in all cases: NCI tumour cell line growth inhibition, 48 h
OVCAR-3 ovarian = tested on: OVCAR-3 ovarian
NCI-H226 lung = tested on: NCI-H226 lung
SK-MEL-2 melanoma = tested on: SK-MEL-2 melanoma
HL-60(TB) leukemia = tested on: HL-60(TB) leukemia
COLO 205 colon = tested on: COLO 205 colon
SR leukemia = tested on: SR leukemia
NCI-H460 lung = tested on: NCI-H460 lung
SW-620 colon = tested on: SW-620 colon
SK-MEL-28 melanoma = tested on: SK-MEL-28 melanoma
BT-549 breast = tested on: BT-549 breast
OVCAR-5 ovarian = tested on: OVCAR-5 ovarian
T-47D breast = tested on: T-47D breast
MALME-3M melanoma = tested on: MALME-3M melanoma

Structure (SMILES) | TGI (OVCAR-3 ovarian) | TGI (NCI-H226 lung) | TGI (SK-MEL-2 melanoma) | TGI (HL-60(TB) leukemia) | TGI (COLO 205 colon) | TGI (SR leukemia) | TGI (NCI-H460 lung) | TGI (SW-620 colon) | TGI (SK-MEL-28 melanoma) | TGI (BT-549 breast) | TGI (OVCAR-5 ovarian) | TGI (T-47D breast) | TGI (MALME-3M melanoma) | GI50 (SK-MEL-2 melanoma) | GI50 (HL-60(TB) leukemia)
CC[C@@H](/C=C\CCC1(C[C@H](O)CCC=C(C)C)OCCO1)O[Si](C(C)C)(C(C)C)C(C)C | 37.1 µM | 35.9 µM | 30.7 µM | 38.4 µM | 40.1 µM | 51.3 µM | 53.3 µM | 73.9 µM | 73.4 µM | 63.6 µM | 38.5 µM | 42.6 µM |  |  | 
CC(C)CCn1c(=O)c2c(=O)[nH][nH]c2c2ccccc21 | > 100 µM | > 100 µM |  | > 100 µM | > 100 µM | > 100 µM | > 100 µM | > 100 µM | > 100 µM | > 100 µM | > 100 µM |  | > 100 µM |  | 
O[C@@H]1C[C@@H]2N[C@@](O)(C[C@@H]2O)[C@H]1O | > 100 µM | > 100 µM |  | > 100 µM | > 100 µM | > 100 µM | > 100 µM | > 100 µM | > 100 µM |  | > 100 µM | > 100 µM | > 100 µM |  | 
C=CC[C@H]1[C@H](O[Si](C)(C)C(C)(C)C)C=CC(=O)[C@@H]1CC(=O)N(Cc1ccccc1)Cc1ccccc1 | 67 µM | 46.7 µM | 38.3 µM | 36.5 µM | 25.6 µM | > 100 µM | > 100 µM | > 100 µM | > 100 µM | 51.6 µM | > 100 µM | 44.2 µM |  |  | 
CC(C)=CCSC1CC2C(CC1(C)O)C2(C)C (stereo unspecified) | 31.2 µM and 23.6 µM | 27.5 µM | 44.5 µM and 24.7 µM | > 100 µM and 19.7 µM | 32.5 µM and 30.8 µM |  | 33.7 µM and 27.2 µM | 35.1 µM and 33.3 µM | 31.3 µM and 30.7 µM |  | 28.2 µM and 30.1 µM |  | 31.2 µM and 30.4 µM | 22.8 µM and 10.2 µM | 34.1 µM and 3.82 µM
Cc1ccc2c(n1)C(=O)c1ccccc1C2=O | 16.5 µM | > 100 µM | > 89 µM | 45.7 µM | 37 µM |  | > 69 µM | > 95.4 µM | > 100 µM | 89 µM | > 56.5 µM | > 85 µM | 23.2 µM |  | 
CC(C)C1OC(=O)/C=C/C=C/C=C/C=C/C=C/CC(O)CC(O)CC(O)CC(O)CC(O)CC(O)CC(O)CC(O)/C=C/C1C (stereo unspecified) | > 100 µM | > 100 µM | > 100 µM | > 100 µM | > 100 µM | > 100 µM | > 100 µM | > 100 µM | > 100 µM | > 100 µM | > 100 µM |  | > 100 µM |  | 
COc1ccc(C2S/C(=C\c3ccc(O)cc3)C(=O)N2NC(=O)Cc2ccccc2)cc1 (stereo unspecified) |  | > 100 µM | > 100 µM | > 100 µM | > 100 µM | > 100 µM | > 100 µM | > 100 µM | > 100 µM |  | > 100 µM |  | > 100 µM |  | 
COC(=O)c1csc(-c2nc(CCNC(=O)OC(C)(C)C)sc2Br)n1 | > 100 µM | > 100 µM |  | > 100 µM | > 100 µM | > 100 µM | > 100 µM | > 100 µM | > 100 µM | > 100 µM | > 100 µM |  | > 100 µM |  | 
C[C@H](O)C1CC(Cn2nnc3c(N)ncnc32)C1(C)C (stereo partly specified) | > 100 µM | > 100 µM | > 100 µM |  |  |  |  | > 100 µM | > 100 µM |  | > 100 µM | > 100 µM |  |  | 
CNC1=CC(=O)C2=C(C1=O)[C@H]1CC[C@]3(C)C(=O)CC[C@H]3[C@@H]1CC2 | 9.3 µM | 25.5 µM | 17.1 µM |  | 33.3 µM | > 60.8 µM | 39.5 µM | > 51.6 µM | 34.4 µM | 36 µM | 51 µM | 57.9 µM |  |  | 
COC(=O)c1c(C)cccc1CC1Cc2c(C)cccc2C1=O (stereo unspecified) | > 100 µM | 95.8 µM | 37.9 µM | 45.5 µM | 48.3 µM |  | > 100 µM | > 100 µM | > 100 µM | > 100 µM | > 100 µM | > 100 µM | > 100 µM |  | 
CC(C)=CCC/C(C)=C/CC/C(C)=C/CC/C(C)=C/CC/C(C)=C\CC/C(C)=C/CC/C(C)=C/CC/C(C)=C/Cc1cc(O)ccc1O | 1.94 µM | 4.65 µM | 3.14 µM |  | > 100 µM | 1.8 µM | 12.5 µM | > 100 µM | > 100 µM | 5.81 µM | 36.4 µM | 50.1 µM |  |  | 
COC(=O)CCC12CCC(O1)c1ccccc12 (stereo unspecified) |  | > 100 µM |  | > 100 µM | > 100 µM | > 100 µM | > 100 µM | > 100 µM | > 100 µM | > 100 µM | > 100 µM | > 100 µM |  |  | 
COC(=O)/N=[N+](\[O-])C(c1ccc(OC)cc1)C1CCCCC1 (stereo unspecified) | 33.2 µM | 26.9 µM | 31.8 µM | 2.78 µM | 3.36 µM |  | 7.98 µM | 24.3 µM | 38.7 µM | 43 µM | 11.9 µM | 40.3 µM | 11.8 µM |  | 
NC(=O)N1N=C2c3ccccc3SC[C@H]2[C@@H]1c1ccccc1 | 35.1 µM | 53.2 µM |  | 55 µM | 43.4 µM | > 100 µM | 40.8 µM | > 100 µM | 52.1 µM |  | 60.2 µM |  | > 100 µM |  | 
CC1(C)Oc2ccc3c(=O)cc(-c4ccc(F)cc4)oc3c2C1C(=O)O (stereo unspecified) | > 100 µM | > 100 µM | > 100 µM |  | > 100 µM | > 100 µM |  |  |  |  | > 100 µM | > 100 µM | > 100 µM |  | 
COCc1cc2c(cc1/C=C/[N+](=O)[O-])OCO2 | 33.7 µM | 42.9 µM |  | 85.6 µM | 38.4 µM | > 100 µM | 34.3 µM | 40.7 µM | 25.2 µM |  | 30.6 µM | 41.8 µM |  |  | 
N#CC1(C#N)NC(c2ccsc2)C(C#N)(C#N)NC1c1ccsc1 (stereo unspecified) | > 100 µM | > 100 µM | > 100 µM | > 100 µM | > 100 µM | > 100 µM | > 100 µM | > 100 µM | > 100 µM | > 100 µM | > 100 µM |  | > 100 µM |  | 
